# Read-outs that look alike come from different tables or passages of the source.
# Assays:
# HOP-62 = test: COMPARE screening (NCI), GI50 in HOP-62
# Text: (§1) This in vitro prescreening system is based on the measurement of anticancer cytotoxicity against human cancer cell line panels consisting of approximately 60 cell lines of major human cancers (including leukemia, and slower growing tumor cells such as lung, colon, breast, skin, kidney, etc.) and is referred hereinafter as “COMPARE” screening.
# (§2) COMPARE screening. The compounds described herein were examined for antiproliferative activity against the human cancer cell lines in the National Cancer Institute screen (COMPARE screening), in which the activity of each compound was evaluated with approximately 55 different cancer cell lines of diverse tumor origins. […] Therefore, the MGM value represents an overall assessment of toxicity of the compound across numerous cell lines.
# HCT-116 = test: COMPARE screening (NCI), GI50 in HCT-116
# Text: as §1, §2
# SF-539 = test: COMPARE screening (NCI), GI50 in SF-539
# Text: as §1, §2
# UACC-62 = test: COMPARE screening (NCI), GI50 in UACC-62
# Text: as §1, §2
# OVCAR-3 = test: COMPARE screening (NCI), GI50 in OVCAR-3; details: OVCAR-3, concentration corresponding to 50% growth inhibition
# Text: as §1, §2
# SN12C = test: COMPARE screening (NCI), GI50 in SN12C
# Text: as §1, §2
# DU-145 = test: COMPARE screening (NCI), GI50 in DU-145
# Text: as §1, §2
# MDA-MB-435 = test: COMPARE screening (NCI), GI50 in MDA-MB-435
# Text: as §1, §2
# [1] = test system: all human cancer cell lines successfully tested (approximately 55); test: COMPARE screening, mean graph midpoint (MGM); assay type: cell-based; details: average GI50 over all cell lines tested, values outside 10^-8 to 10^-4 molar taken as the limits, read-out: MGM (mean graph midpoint for growth inhibition); for MGM (mean GI50 across cell lines): Homo sapiens
# Text: as §1, §2
# topoisomerase I = molecular target: T1, topoisomerase I (Homo sapiens, UniProt P11387); test: Topoisomerase I-mediated DNA cleavage, 3'-end-labeled 161 bp pBluescript SK(-) fragment; assay type: biochemical; details: Table 2; tested at concentrations ranging up to 10 μM; semi-quantitative relative to compound A
# T1 sequence (P11387 1-765): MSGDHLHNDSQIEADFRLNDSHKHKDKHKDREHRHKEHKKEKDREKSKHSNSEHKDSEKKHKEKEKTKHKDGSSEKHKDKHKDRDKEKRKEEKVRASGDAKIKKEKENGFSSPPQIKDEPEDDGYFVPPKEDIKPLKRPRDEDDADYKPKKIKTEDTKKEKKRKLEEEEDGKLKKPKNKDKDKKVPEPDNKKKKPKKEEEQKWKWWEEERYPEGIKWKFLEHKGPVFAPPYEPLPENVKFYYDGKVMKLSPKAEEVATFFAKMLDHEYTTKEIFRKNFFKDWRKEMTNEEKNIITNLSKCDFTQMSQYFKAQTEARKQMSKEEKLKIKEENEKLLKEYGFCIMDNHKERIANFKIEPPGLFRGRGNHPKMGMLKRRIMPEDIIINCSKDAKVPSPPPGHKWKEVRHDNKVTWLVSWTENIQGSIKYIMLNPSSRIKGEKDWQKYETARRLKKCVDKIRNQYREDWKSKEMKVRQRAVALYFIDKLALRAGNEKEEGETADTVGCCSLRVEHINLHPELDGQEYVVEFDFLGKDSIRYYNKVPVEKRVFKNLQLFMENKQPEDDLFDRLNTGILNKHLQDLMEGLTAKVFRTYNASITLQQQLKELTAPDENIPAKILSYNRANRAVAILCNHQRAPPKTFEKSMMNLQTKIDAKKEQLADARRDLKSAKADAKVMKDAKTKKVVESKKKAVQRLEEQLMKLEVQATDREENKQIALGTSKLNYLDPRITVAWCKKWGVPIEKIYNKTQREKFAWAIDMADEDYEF
# Description: The assays were carried out at room temperature for 30 min and stopped by adding 0.5% SDS. […] Topoisomerase I was present in all reaction mixtures except for the one corresponding to the first lane.
# Induction of DNA cleavage.
# Labeling reactions were followed by phenol-chloroform extraction and ethanol precipitation. […] Reactions were terminated by adding 0.5% SDS.
# DNA Cleavage Semiquantitative Analysis. […] The rubberband baseline correction was applied with band detection sensitivity set at 90.
# SR = test system: SR
# Text: as §1, §2
# [2] = Homo sapiens, HOP-62, read-out: Cytotoxicity GI50, lung HOP-62, lung, HOP-62, concentration corresponding to 50% growth inhibition
# [3] = Homo sapiens, HCT-116, read-out: Cytotoxicity GI50, colon HCT-116, colon, HCT-116, concentration corresponding to 50% growth inhibition
# [4] = Homo sapiens, read-out: Cytotoxicity GI50, CNS SF-539
# [5] = Homo sapiens, UACC-62, read-out: Cytotoxicity GI50, melanoma UACC-62, melanoma, UACC-62, concentration corresponding to 50% growth inhibition
# [6] = Homo sapiens, OVCAR-3, read-out: Cytotoxicity GI50, ovarian OVCAR-3, ovarian
# [7] = Homo sapiens, SN12C, read-out: Cytotoxicity GI50, renal SN12C, renal, SN12C, concentration corresponding to 50% growth inhibition
# [8] = Homo sapiens, DU-145, read-out: Cytotoxicity GI50, prostate DU-145, prostate, DU-145, concentration corresponding to 50% growth inhibition
# [9] = Homo sapiens, MDA-MB-435, read-out: Cytotoxicity GI50, breast MDA-MB-435, breast, MDA-MB-435, concentration corresponding to 50% growth inhibition
SMILES,GI50 (HOP-62; [2]) [µM],GI50 (HCT-116; [3]) [µM],GI50 (SF-539; [4]) [µM],GI50 (UACC-62; [5]) [µM],GI50 (OVCAR-3; [6]) [µM],GI50 (SN12C; [7]) [µM],GI50 (DU-145; [8]) [µM],GI50 (MDA-MB-435; [9]) [µM],MGM (mean GI50 across cell lines) [1] [µM],Top 1 Cleavage (topoisomerase I),GI50 (HOP-62) [µM],GI50 (HCT-116) [µM],GI50 (SF-539) [µM],GI50 (UACC-62) [µM],"GI50 (OVCAR-3; read-out: Cytotoxicity GI50, ovarian OVCAR-3, ovarian) [µM]",GI50 (SN12C) [µM],GI50 (DU-145) [µM],GI50 (MDA-MB-435) [µM],GI50 (SR) [µM],IC50 [1] [µM]
"COc1ccc2c(c1OC)-c1ncc3c(OC)ccc(OC)c3c1C2.Cl [Compound 9da, 1,4,7,8-Tetramethoxy-11H-indeno[1,2-c]isoquinoline Hydrochloride]",21.4,17.8,14,18,15.4,14.8,28.1,23.4,18.6,"0 (0, no activity)",–,–,–,–,–,–,–,–,–,–
"COc1cc2c3c(ncc2c(OC)c1OC)-c1c(ccc2c1OCO2)C3.Cl [Compound 9cb, 2,3,4-Trimethoxy-7,8-methylenedioxy-11H-indeno[1,2-c]isoquinoline Hydrochloride]",0.234,0.0694,0.869,0.439,0.403,0.602,> 100,0.178,2.01,"++ (++, similar activity as compound A)",–,–,–,–,–,–,–,–,–,–
"COc1cc2c[n+](CCCNC(C)=O)c3c(c2cc1OC)C(=O)c1cc2c(cc1-3)OCO2 [Compound 6ab, 2,3-Dimethoxy-6-(3-N-acetylamino-1-propyl)-8,9-(methylenedioxy)-11-oxo-indeno[1,2-c]isoquinolinium Chloride]",–,–,–,–,–,–,–,–,–,–,1,5.08,0.0968,3.43,12.2,2.76,0.907,0.466,0.0929,7.96

# From patent publication US7781445B2, “Synthesis of indenoisoquinoliniums and methods of use” (Purdue Research Foundation, priority 2005, dated 2010)
